# Source: patent publication US20220280594A1, “APPLICATION OF POLYPEPTIDE OR DERIVATIVE THEREOF” (CHENGDU HUITAI BIOMEDICINE CO., LTD., priority 2019, published 2022)
# Ends that are not written are not given here. PEG = not defined here
# Key:
# [1] = test system: human non-small cell lung cancer cells (A549); test: scratch assay, migration of A549 cells; assay type: cell-based; details: A549, 10 μM, 48 hours; control group 75.31 ± 8.19
# Protocol: (§1) In the scratch assay, the cell migration rate was negatively correlated with the inhibitory effect of the drug component on tumor cell migration ability. The cell migration inhibition experiment was described as follows: tumor cells were cultured in vitro, cells in logarithmic growth phase were collected and seeded evenly in a 24-well plate at a density of 1-2×10^5 cells/well; the cells were cultured in a cell incubator until a monolayer was formed; a scratch tool was used to make a “-” (straight) scratch on the monolayer of cells; the cells were washed 1-3 times with PBS, and a medium (with 2% fetal bovine serum) containing specific test components was added to the culture. Experimental grouping: PBS control group; polypeptide or derivative thereof treatment group (N1-N54), 10 μM. Three independent parallel wells were set up in each group, and the cells were cultured continuously in a cell incubator for 48 hours. […] At least 3 representative images for each well were taken. ImageJ software was used to count the migration distance of the cells, and the cell migration rate was calculated as: cell migration rate (%)=(width of original scratch−width of current scratch)/width of original scratch×100.
# This example was a scratch assay to evaluate the inhibitory effect of the polypeptide or derivative thereof (N1-N54) on the migration ability of human non-small cell lung cancer (A549). The experimental method was as described in Example 2.
# [2] = test system: human lung cancer cells (95D); test: scratch assay, migration of 95D cells; assay type: cell-based; details: 10 μM, 48 hours, control group 55.3 ± 3.19
# Protocol: as §1
# This example was a scratch assay to evaluate the inhibitory effect of the polypeptide or derivative thereof (N1-N54) on the migration ability of human lung cancer cells (95D). The experimental method was as described in Example 2.
# [3] = test system: human lung squamous carcinoma cells (NCI-H226); test: scratch assay, migration of NCI-H226 cells; assay type: cell-based; details: NCI-H226, 10 μM, 48 hours; control group 65.31 ± 3.19
# Protocol: as §1
# This example was a scratch assay to evaluate the inhibitory effect of the polypeptide or derivative thereof (N1-N54) on the migration ability of human lung squamous carcinoma cells (NCI-H226). The experimental method was as described in Example 2.
# [4] = test system: human lung cancer cells (A549) subcutaneous xenograft; test: lung cancer subcutaneous xenograft animal model, intravenous injection; assay type: in vivo, mice (BALB/c-nu/nu); details: intravenous 60 mg/kg once every other day, 20 days; for Weight of tumor (g) (mean ± SD): control 2.53 ± 0.17; for Volume of tumor (mm^3) (mean ± SD): control 3373.26 ± 581.44
# Protocol: Experimental animals: 4-6 weeks old female immunodeficiency mice (BALB/c-nu/nu, Beijing Vital River Laboratory Animal Technology Co., Ltd.).
# Subcutaneous xenograft animal model. The number of cells inoculated subcutaneously vin mice was about 2×10^6/200 μL. When the volume of the subcutaneous tumor was greater than 100 mm^3, the mice were randomly divided into groups and subjected to treatment. When the mass volume of the tumors in model control group reached 2000 mm^3 or the animal dies, the treatment ended. The animals were dissected, the tumors were taken out, and the weight and volume of the tumors were measured. During the period of the entire experiment, the mice were observed and the body weight was measured every other day.
# The method used in the efficacy test on the lung cancer subcutaneous xenograft animal model was as described in Example 5. The lung cancer cells were the human lung cancer cells (A549), and the route of administration was intravenous injection. This example involved a total of 3 experiments to evaluate N1-N15, N16-N30, and N31-N54 respectively. The experimental procedure, route of administration, dosage and frequency of administration, and detection method were all consistent in the three experiments. The experimental groups were model control group and polypeptide or derivative thereof treatment groups (N1-N15, N16-N30, or N31-N54). The drug dosage of the N1-N54 treatment groups was 60 mg/kg, and the treatment time was 20 days.
# [5] = test system: human pancreatic cancer cells (PANC-1); test: transwell migration assay, PANC-1 cells; assay type: cell-based; details: PANC-1 transwell migration, 10 μM, 24 hours; control group 360 ± 60
# Protocol: (§2) The Transwell chamber system was used in the transwell cell migration experiment. The chamber has an upper layer and a lower layer, which are separated by an artificial semipermeable membrane in the middle. Cells that have migrated through the semi-permeable membrane will attach to the lower surface of the semi-permeable membrane. The migration ability is evaluated by counting the number of cells on the lower surface of the semi-permeable membrane. The number of cells that have migrated is negatively correlated with the inhibitory effect of the drug on the migration ability of the tumor cells. Transwell migration assay was performed as follows: tumor cells were cultured in vitro, cells in logarithmic growth phase were collected, and cell suspension was prepared with fresh serum-free medium at a density of 2-3×10^5 cells/mL. Cells were inoculated, 100 μL/well cell suspension (serum-free medium) in the upper chamber and 600 μL/well complete culture medium in the lower chamber. After incubated in 37° C., 5% CO2 incubator for 4-5 hours, serum-free medium (100 μL/well) was added to the control group, and serum-free medium containing polypeptide or derivative thereof (N1-N54) was added to the upper chamber of the treatment group (100 μL/well), the final concentration of the peptide or derivative thereof in the upper chamber was 10 μM. The cells were incubated continuously for 24 hours, and then fixed with methanol and stained with crystal violet. Images were taken under a microscope and the number of migrated cells was counted with ImageJ.
# This example was a transwell cell migration experiment to evaluate the inhibitory effect of the polypeptide or derivative thereof (N1-N54) on the migration ability of human pancreatic cancer cells (PANC-1). The experimental method was as described in Example 3.
# [6] = test system: human liver adenocarcinoma cells (SK-HEP-1); test: transwell migration assay, SK-HEP-1 cells; assay type: cell-based; details: SK-HEP-1 transwell migration, 10 μM, 24 hours; control group 1 782 ± 108, control group 2 768 ± 86
# Protocol: as §2
# This example was a transwell cell migration experiment to evaluate the inhibitory effect of the polypeptide or derivative thereof (N1-N54) on the migration ability of human liver adenocarcinoma cells (SK-HEP-1). The experimental method was as described in Example 3.
# [7] = test system: human breast cancer cells (MDA-MB-453); test: scratch assay, migration of MDA-MB-453 cells; assay type: cell-based; details: MDA-MB-453, 10 μM, 48 hours; control group 32.42 ± 2.04
# Protocol: as §1
# This example was a scratch assay to evaluate the inhibitory effect of the polypeptide or derivative thereof (N1-N54) on the migration ability of human breast cancer cells (MDA-MB-453). The experimental method was as described in Example 2.
# [8] = test system: human oral epidermoid carcinoma KB cells; test: scratch assay, migration of KB cells; assay type: cell-based; details: 10 μM, 48 hours, control group 54.03 ± 4.21
# Protocol: as §1
# This example was a scratch assay to evaluate the inhibitory effect of the polypeptide or derivative thereof (N1-N54) on the migration ability of human oral epidermoid carcinoma cells (KB). The experimental method was as described in Example 2.
# [9] = test system: human thyroid cancer cells (FRO); test: scratch assay, migration of FRO cells; assay type: cell-based; details: 10 μM, 48 hours, control group 60.34 ± 8.32
# Protocol: as §1
# This example was a scratch assay to evaluate the inhibitory effect of the polypeptide or derivative thereof (N1-N54) on the migration ability of human thyroid cancer cells (FRO). The experimental method was as described in Example 2.
Substance,"Migration rate (%) (mean ± SD, P) [1]","Migration rate (%) (mean ± SD, P) [2]","Migration rate (%) (mean ± SD, P) [3]",Weight of tumor (g) (mean ± SD) [4],Volume of tumor (mm^3) (mean ± SD) [4],"Number of cells (mean ± SD, P), migrated cells [5]","Number of cells (mean ± SD, P), migrated cells [6]","Migration rate (%) (mean ± SD, P) [7]","Migration rate (%) (mean ± SD, P) [8]","Migration rate (%) (mean ± SD, P) [9]"
N12: SEQ ID NO: 1 with deletion of position 18 and positions 1-2 (VRFLAKENVTQDAED),"20.05 ± 8.79,** %","28.72 ± 2.96,** %","13.18 ± 6.31,*** %",0.85 ± 0.19 g,1275.34 ± 221.5 mm^3,"246 ± 14,*","405 ± 49,**","6.32 ± 1.78,*** %","11.53 ± 2.78,*** %","7.67 ± 3.29,*** %"
N7: SEQ ID NO: 1 with addition of one amino acid at the carboxyl terminal and substitution A15R (YRVRFLAKENVTQDREDNC),"48.64 ± 3.10,** %","35.72 ± 3.68,** %","18.83 ± 4.53,*** %",0.81 ± 0.15 g,1189.39 ± 200.83 mm^3,"132 ± 15,***","127 ± 16,****","12.64 ± 2.73,** %","11.11 ± 3.86,*** %","5.73 ± 2.04,*** %"
"N49: SEQ ID NO: 1 with A7R, deletion of positions 1-2 and position 18, PEG modification at the carboxyl terminal (VRFLRKENVTQDAED-{PEG}; reading uncertain)","27.20 ± 6.23,** %","29.37 ± 3.62,** %","38.90 ± 5.49,** %",0.73 ± 0.26 g,1513.42 ± 287.49 mm^3,"137 ± 29,***","137 ± 11,****","15.79 ± 4.48,** %","16.51 ± 3.93,** %","15.77 ± 2.99,** %"
N19: SEQ ID NO: 1 with deletion of positions 1-5 and 15-18 and addition of two amino acids at the carboxyl terminal (LAKENVTQDRC),"53.74 ± 5.46,* %","42.04 ± 5.90,* %","16.80 ± 8.02,*** %",0.81 ± 0.19 g,1235.44 ± 432.58 mm^3,"238 ± 27,*","82 ± 6,****","25.49 ± 2.69,* %","8.14 ± 2.21,*** %","25.59 ± 4.08,** %"
N15: SEQ ID NO: 1 with substitution N18R and addition of one amino acid to the carboxyl terminal (YRVRFLAKENVTQDAEDRC),"14.98 ± 9.09,** %","24.09 ± 6.40,** %","35.05 ± 3.95,** %",0.95 ± 0.18 g,1307.48 ± 416.26 mm^3,"220 ± 18,**","131 ± 10,****","8.95 ± 2.93,*** %","40.62 ± 3.53,* %","8.84 ± 2.27,*** %"
N16: SEQ ID NO: 1 with substitution A7R and addition of one amino acid at the carboxyl terminus (YRVRFLRKENVTQDAEDNC),"30.57 ± 5.41,** %","17.00 ± 8.00,** %","21.10 ± 8.01,*** %",1.05 ± 0.26 g,1442.4 ± 293.63 mm^3,"230 ± 28,*","74 ± 18,****","8.11 ± 1.71,*** %","18.28 ± 3.45,** %","11.72 ± 4.41,*** %"
N10: SEQ ID NO: 1 with deletion of positions 15-18 and 1-3 and PEG modification at the carboxyl terminal (RFLAKENVTQD-{PEG}; reading uncertain),"26.86 ± 8.78,** %","34.35 ± 5.74,** %","17.75 ± 5.87,*** %",0.86 ± 0.17 g,1211.62 ± 670.09 mm^3,"254 ± 20,*","54 ± 5,****","6.9 ± 1.65,*** %","13.87 ± 3.48,*** %","14.14 ± 3.64,*** %"
